How the values were obtained:
[1] = test system: parval, methi, coriander, radish, guar; test: Shriveling / wilting / dehydration / becoming wet of produce
From the text: (§1) Most of the foods changed color or texture.
(§2) The assembly was shaken periodically.

[2] = Color loss of meat and fish; details: meat and fish
From the text: as §1
These bags were sealed with a heat sealer.

[3] = test system: avocado; test: Softening / rotten inside (spoiled flesh) of avocado; details: for Spoilage Time - Sample: Softening, Avocado, control 2 days
From the text: as §1, §2

[4] = Color change / browning / yellowing of foods (keeping produce green longer); details: for Change in color and softness: after 70 days
Method: All studies were conducted at a room temperature of about 25° C. To determine the effectiveness of a shelf-life extender, a control sample which was untreated with any shelf-life extenders, was tested identical to the test samples. […] All studies in those Examples of Tables 1-6 were conducted in closed plastic or glass containers. Containers, such as plastic containers, without or with lids having holes can be used if it is advantageous to let excess moisture escape or to prevent condensation of moisture released by some produce.
Food exposed to preservatives or by a sachet was placed in typically polystyrene or acrylic containers depending upon the size and number of food items. Glass jars and bottles were also used. The containers were snap-closed or with a lid. The containers were purchased mainly from Amazon or Webstaurant.com store. When needed, plastic containers with holes or without lids were used.
For controlled exposure and a constant supply of a preservative to foods, sachets containing one or more drops of preservatives were used. Sachets were made by placing an appropriate amount of a preservative in a plastic bag containing a piece of paper and heat sealing the bag. The sachet bag materials used were Tyvek® for solid preservative, polyethylene, polyester and high barrier multilayer films were used for liquid preservatives. These bags were sealed with a heat sealer. The sachet was typically applied on one side of the container containing food.
A piece of paper napkin was taped inside a 100 microns thick polyethylene or polyester Ziploc bag. The size of the bag varied from ˜20 cm×30 cm to ˜60 cm×90 cm depended on the sample with sandwich bags up to gallon bags being exemplary. The paper napkin was wetted with 0.1-0.5 ml of a preservative or a mixture of preservatives. A tray of aluminum, stainless steel or glass containing the foods was placed inside the plastic (polyethylene, polyester and multilayer-laminated) bag and almost closed by locking the Ziploc. Air was blown with an air blower from the unclosed end until the bag was fully blown and then quickly closed tightly by locking the remaining Ziploc. If a preservative was a sublimable solid, it was placed in a petri dish and then placed inside the bag in the tray before blowing air. The exposure time was varied from five minutes to a day depending upon the food. […] The assembly was shaken periodically. After the predetermined time, the tray containing produce was removed from the bag, allowed to de-gas for 10-30 minutes in air and the produce was then placed in an appropriately sized container. Glass and stainless steel containers with lids were also often used.
A solution of one or more preservatives was prepared in a large (e.g., 2-10 liter) glass beaker or a jar. A sack containing the food was prepared by placing the food in a plastic mesh bag. The sack was placed in the solution of the preservative. A smaller glass beaker containing proper amount of water was place over the package to keep the sack soaked in the solution of the preservative during the treatment. The solution was stirred either with a plastic spatula or with a magnet over a magnetic stirrer. After treatment, the mesh sack was removed, the produce was washed in a tray with running water, strained and air dried at 30° C. in an air blowing oven for about 5-10 minutes, while shaking the tray or turning the food periodically followed by placing the sample in an appropriate container.
The food was placed in mesh trays and sprayed with an aqueous solution (1-10%) of a preservative while shaking the tray or turning the food. The solution was allowed to drain from the tray and the food was air dried in an air blowing oven at 30° C. for about 5-10 minutes, while shaking the tray or turning food periodically followed by placing the sample in an appropriate container.

C=CCN=C=S [AI, allyl isothiocyanate]
Spoilage Time - Sample ([1]; Example 75, Shriveling, Parval, 0.5 hr P-E, control 4 days): 4+ days
Spoilage Time - Sample ([1]; Example 76, Shriveling, Parval, 1 hr P-E, control 4 days): 4+ days
Spoilage Time - Sample ([1]; Example 83, Wet, Methi (Indian fenugreek), 1 hr P-E, control 9 days): 30 days
Spoilage Time - Sample ([1]; Example 83, Wet, Methi (Indian fenugreek), 1 hr P-E, control 9 days, listed as allyl isothiocyanate): remained fresh and green
Crispness of treated guar ([1]; guar exposed to vapor, lost green color slightly): remained crisp
Improvements with meat and fish [2]: demonstrated improvements
Spoilage Time - Sample ([3]; Example 77, 0.25 hr P-E): 2 days
Spoilage Time - Sample ([3]; Example 78, 2 hrs P-E): 2 days
Spoiling of the flesh with development of fungus ([3]; avocados, Examples 77, 78, 107, 108, 113 & 171): significantly delayed
Spoilage Time - Sample ([4]; Example 11, Browning, Coriander, 0.25 hr P-E, control 11 days): significantly delayed
Spoilage Time - Sample ([4]; Example 12, Color change, Paneer (Indian cottage cheese), Sachet, control 9 days): 10+ days
Spoilage Time - Sample ([4]; Example 13, Color change, Red cabbage juice, 0.02 g, control 12 days): 13 days
Spoilage Time - Sample ([4]; Example 14, Color change, Blackberry juice, 0.02 g, control 5 days): 12 days
Spoilage Time - Sample ([4]; Example 15, Color change, Tindora, 2 hrs P-E, control 6 days): 17 days
Spoilage Time - Sample ([4]; Example 15, Color change, Tindora, 2 hrs P-E, control 6 days, listed as allyl isothiocyanate): delay of ripening and turning red from green was achieved
Green-to-yellow color change ([4]; Example 30, fresh green chickpeas, sachet, control 7 days): > 9 days
Change in color and softness ([4]; Example 48, puri): There was very little change in color and softness of puri even after 70 days. Other
Change in color and softness ([4]; Example 53, millet bread): There was very little change in color and softness of millet bread even after 70 days.
Color change from green-to-yellow ([4]; Examples 25 & 27, broccoli, vapors, control 5 days): > 16 days

Source: patent US12193465B2, “Materials and methods for extending shelf-life of foods” (JP Laboratories, Inc., priority 2021, dated 2025)
